Measured values as given in article PMC10764104, “Discovery of Molecular Glue Degraders via Isogenic Morphological Profiling” (ACS Chemical Biology, 2023).

Biological target: T1, GSPT2 G566N (Homo sapiens, UniProt Q8IYD1, G566N)
T1 construct: expressed in transfected cells; host or cells: RKO cells, lentiviral transduction, puromycin-selected
Assay: Western blot (HA-tag) of G-loop mutant GSPT2 in RKO cells
Format: cell-based
Conditions: RKO cells stably overexpressing HA-GSPT2 G566N, 16 h; 10 μM FL2-14 or 10 nM CC-885
Method: Figure 3 FL2-14 is a selective GSPT2 molecular glue degrader. (A) Structure of FL2-14 comprising fluorosulfate scaffold FL2 (black) and tail group modification 14 (blue). (B) DMSO-normalized quantitative proteomics after 16 h of treatment with FL2-14 (10 μM) in RKO WT (n = 2). […] (C) Structural alignment of AlphaFold models of GSPT1 (AF-P15170-F1-model_v4 in gray) and GSPT2 (AF-Q8IYD1-F1-model_v4 in blue). (D) Validation of GSPT2 degradation by FL2-14. […] (E) Dose–response of FL2-14 in RKO and HEK293T cells. Cells were treated with the FL2-14 (0 to 10 μM) for 16 h. (F) Degradation of GSPT2^WT or GSPT2^G566N.
Prediction of the G‐loop degron sequence in GSPT2
We first compiled all CRBN degron sequences with known crystal structures (Table S 2). We subsequently discarded 6UML as its degron sequence included an alanine instead of the typical glycine observed in the seventh amino acid residue of other degron sequences, leaving six degron sequences. We then scanned the latest AlphaFold structure of GSPT215 for a potential stretch of 10 amino acids that would align best with each degron sequence. We yielded the same stretch of amino acid residues from position 560 to 569 ([…]) and RMSD values under 0.5 Å.
Table S 2: List of crystal structures used for the computational prediction of the G‐loop degron sequence […]
PDB code Resolution (Å) Chain Segment Sequence Reference
Analysis of G‐loop mutation […]

T1 sequence (Q8IYD1 whole entry G566N): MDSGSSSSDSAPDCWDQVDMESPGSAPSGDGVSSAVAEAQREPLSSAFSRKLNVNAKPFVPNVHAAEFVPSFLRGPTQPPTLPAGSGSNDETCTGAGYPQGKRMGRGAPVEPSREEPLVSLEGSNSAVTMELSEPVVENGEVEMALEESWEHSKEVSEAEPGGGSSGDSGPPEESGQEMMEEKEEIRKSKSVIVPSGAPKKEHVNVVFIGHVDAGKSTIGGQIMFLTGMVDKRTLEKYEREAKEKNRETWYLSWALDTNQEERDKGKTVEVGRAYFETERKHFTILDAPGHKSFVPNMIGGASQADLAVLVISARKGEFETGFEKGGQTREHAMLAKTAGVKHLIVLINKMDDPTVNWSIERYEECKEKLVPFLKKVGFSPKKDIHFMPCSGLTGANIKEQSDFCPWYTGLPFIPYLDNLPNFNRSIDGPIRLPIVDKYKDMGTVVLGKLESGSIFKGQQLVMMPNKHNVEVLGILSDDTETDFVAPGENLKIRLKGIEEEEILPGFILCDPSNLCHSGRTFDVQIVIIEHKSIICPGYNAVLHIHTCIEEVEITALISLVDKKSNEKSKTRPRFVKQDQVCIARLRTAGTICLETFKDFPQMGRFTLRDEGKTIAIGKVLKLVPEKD

In the case of `CN(Cc1ncc(C2CC2)o1)S(=O)(=O)Oc1ccc(Nc2ccc3c(c2)C(=O)N(C2CCC(=O)NC2=O)C3=O)cc1` (stereo not shown) [FL2-14], the “degradation of HA-tagged GSPT2 G566N (glycine of G-loop replaced by asparagine)” value is reported as “rescued degradation of GSPT2”.
